This is an account of results in patent US20190077774A1, “PEROXISOME PROLIFERATOR-ACTIVATED RECEPTOR AGONISTS” (City of Hope, priority 2017, published 2019).

Values joined by “and” are separate entries in the source; they are usually repeats but may differ in a detail not shown here. Equal values may be shown once.

The target of one test is T1, human PPARα (Homo sapiens, UniProt Q07869).
T1 construct: expressed in transfected cells; host or cells: CV-1 (monkey kidney) cells, transient transfection
T1 sequence (Q07869 159-468): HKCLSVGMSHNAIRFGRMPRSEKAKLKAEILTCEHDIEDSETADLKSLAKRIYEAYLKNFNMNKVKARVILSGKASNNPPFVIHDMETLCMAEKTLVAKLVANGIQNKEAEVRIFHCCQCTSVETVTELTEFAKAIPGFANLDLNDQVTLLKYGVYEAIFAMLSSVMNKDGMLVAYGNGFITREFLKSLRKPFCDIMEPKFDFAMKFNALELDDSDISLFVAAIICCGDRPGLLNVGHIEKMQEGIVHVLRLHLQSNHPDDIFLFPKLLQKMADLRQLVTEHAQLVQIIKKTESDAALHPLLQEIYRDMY
The test is described as follows: PPAR-GAL4 transactivation assay in transiently transfected CV-1 cells. It counts as cell-based. How it is done:
To assess the functional transcriptional activity of these compounds, cell-based assays using chimeric receptor Gal4 DNA-binding domain (DBD)-NR ligand binding domain cotransfection assay (LBDs of PPARα, PPARγ, and PPARδ) were performed. As an initial screen to determine the PPARα activity and selectivity, all compounds were evaluated for in vitro potency and selectivity by transfection testing, using CV-1 cells transfected with human and mouse PPARs. MH100×4 is a luciferase reporter with four copies of a GAL4 UASG response element, where GAL-I refers to the ligand-binding domain of the indicated receptor fused to the C-terminus of the GAL4 DNA-binding domain. Assays were performed using a Biomek automated workstation in which the genes for the nuclear receptor, as well as a plasmid containing a response element upstream of a luciferase cDNA, are transfected into CV-1 cells. Compounds were evaluated for their ability to activate human and mouse PPARs at […] test concentrations. […] The transactivation activity of the series of compounds (DY121-132, 10a-g) toward PPARα was expressed as EC50, which is the concentration of the test compound that affords half-maximum activity, as summarized in Table 1.
Cell-based reporter gene assays Cell based transactivation assays were performed in CV 1 cells as described (Forman, et al.). PPARα activity was assayed with a GAL4 reporter construct and fusion proteins containing the ligand binding domains of human PPARα, human PPARγ and human PPARδ linked to the DNA binding domain of yeast GAL4. Reporter constructs (300 ng/10^5 cells) and cytomegalovirus-driven expression vectors (20-50 ng/10^5 cells) were added as indicated along with CMX-b-gal (500 ng/10^5 cells) as an internal control. Cells were transiently transfected by Lipofectamine as described. Cells were incubated with DNA complexed liposomes for 2 h and subsequently treated for approximately 45 h with phenol red free DMEM FBS containing the indicated compounds. After exposure to ligand, the cells were harvested and assayed for luciferase and β-galactosidase activity. All points were assayed in triplicate and varied by less than 15%. Each experiment was repeated three or more times with similar results. Fold activation is reported.
In vitro binding and transfection studies. As an initial screen to determine the PPARα, PPARγ, and PPARδ activity, all compounds were evaluated for in vitro potency and selectivity by transfection testing, using CV-1 cells transfected with human and mouse PPARs. MH100×4 is a luciferase reporter with four copies of a GAL4 USAG response element, where GAL-I refers to the ligand-binding domain of the indicated receptor fused to the C-terminus of the GAL4 DNA-binding domain. Assays were performed using a Biomek automated workstation in which the gene for the nuclear receptor, as well as a plasmid containing a response element upstream of a luciferase cDNA, are transfected into CV-1 cells. Compounds were evaluated for their ability to activate human PPARs at 1, 2.5, 3, and 5 uM test concentrations.
Compounds were screened for agonist activity towards PPAR-GAL4 chimeric receptors in transiently transfected CV-1 cells as described. EC50 is the concentration of test compound that gave 50% maximum efficacy.

For a further test, the target named is T2, PPARα (Homo sapiens, UniProt Q07869).
T2 construct: expressed in transfected cells; host or cells: CV-1 (monkey kidney) cells
T2 sequence (Q07869 1-468): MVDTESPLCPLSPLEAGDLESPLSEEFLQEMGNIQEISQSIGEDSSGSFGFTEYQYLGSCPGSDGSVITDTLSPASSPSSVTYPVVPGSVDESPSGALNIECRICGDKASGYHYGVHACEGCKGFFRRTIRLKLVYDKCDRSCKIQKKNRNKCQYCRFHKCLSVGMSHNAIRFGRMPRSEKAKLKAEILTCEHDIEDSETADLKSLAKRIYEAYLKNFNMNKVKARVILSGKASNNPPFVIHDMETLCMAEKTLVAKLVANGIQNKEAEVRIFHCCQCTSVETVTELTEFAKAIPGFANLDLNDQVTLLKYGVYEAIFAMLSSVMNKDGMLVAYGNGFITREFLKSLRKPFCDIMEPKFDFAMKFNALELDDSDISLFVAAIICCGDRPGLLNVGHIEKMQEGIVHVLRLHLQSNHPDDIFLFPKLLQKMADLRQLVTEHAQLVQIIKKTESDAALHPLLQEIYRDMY
T2 sequence (P19793 1-462 partner): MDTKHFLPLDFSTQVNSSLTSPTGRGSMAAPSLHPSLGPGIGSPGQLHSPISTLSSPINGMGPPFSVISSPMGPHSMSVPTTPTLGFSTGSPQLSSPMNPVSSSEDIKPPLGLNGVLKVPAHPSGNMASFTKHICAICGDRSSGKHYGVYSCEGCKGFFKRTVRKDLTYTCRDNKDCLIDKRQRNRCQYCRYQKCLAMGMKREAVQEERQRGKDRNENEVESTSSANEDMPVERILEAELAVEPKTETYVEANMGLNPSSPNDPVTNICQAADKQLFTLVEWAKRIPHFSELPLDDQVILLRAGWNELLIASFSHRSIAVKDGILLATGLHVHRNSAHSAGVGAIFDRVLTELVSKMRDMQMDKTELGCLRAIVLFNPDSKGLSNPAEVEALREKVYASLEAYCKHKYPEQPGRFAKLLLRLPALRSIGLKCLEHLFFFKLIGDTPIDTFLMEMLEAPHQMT
Kind of test: PPRE-luc reporter assay in CV-1 cells co-transfected with PPARα and RXRα expression plasmids. It counts as cell-based. The settings on record: luciferase reporter. As for the experimental part:
In brief, monkey kidney CV-1 cells were co-transfected with appropriate reporter constructs and expression vectors. The fold activation of the reporter construct by ligand was determined at several concentrations of selected compounds (FIG. 4).^20 To examine the effect of DY-compound on PPARα-mediated PPRE transcriptional activation, a PPRE-luc reporter assay was conducted using a PPRE-driven luciferase reporter-gene (PPRE-luc) plasmid and PPARα and RXRα gene expression plasmids in CV-1 cells.
On the technique in general: Reporter assays use an easily measured gene product as a stand-in for the process of interest.

The term EC50 denotes the concentration at which the effect is half-maximal. As for `COc1ccc(Cn2c(CCCc3ccc(OC(C)(C)C(=O)O)cc3)nn(Cc3ccc(C)cc3)c2=O)cc1` [10a, 2-(4-{3-[4-(4-Methoxy-benzyl)-1-(4-methyl-benzyl)-5-oxo-4,5-dihydro-1H[1,2,4]triazol-3-yl]-propyl}-phenoxy)-2-methyl-propionic acid], the “fold greater PPARα agonistic activity compared to LY518674” value at human PPARα came out at 42 fold. Further, the EC50 at human PPARα (PPAR-GAL4 chimeric receptor, CV-1 cells, read-out: EC50(nM) hPPARα) is 0.85 nM and 1 nM. Also, the “selectivity over PPARγ and PPARδ” value at human PPARα (PPAR-GAL4 transactivation assays) is recorded as “excellent selectivity”. Further, at PPARα, the “PPARα activation / PPRE-luc activity” value is recorded as “highest PPARα activation”.
